Assays:
Assay type in all cases: cell-based
E. coli = E. coli (Gram-neg.); after three days; peptone-glucose agar; pH ~ 6.9-7.0
Description: (§1) Antibacterial activity of organotin compounds. Minimal concentration
(§2) causing complete inhibition of visible growth (MIC; after three days).
(§3) Test medium: peptone-glucose agar; pH ~ 6.9-7.0.

S. lactis = S. lactis (Gram-pos.); after three days; peptone-glucose agar; pH ~ 6.9-7.0
Description: as §1, §2, §3

B. subtilis = B. subtilis (Gram-pos.); after three days; peptone-glucose agar; pH ~ 6.9-7.0
Description: as §1, §2, §3

P. fluorescens = P. fluorescens (Gram-neg.); after three days; peptone-glucose agar; pH ~ 6.9-7.0
Description: as §1, §2, §3

Aspergillus niger = conditions: after three days, glucose-agar, pH~6.9-7.0
Description: (§4) Antifungal activity of organotin compounds. Minimal concentra-
(§5) tion (mg/l) causing complete inhibition of visible growth (MIC;
(§6) after three days). -Test medium: glucose-agar; pH~6.9-7.0.

Penicillium italicum = conditions: after three days, glucose-agar, pH~6.9-7.0
Description: as §4, §5, §6

Cladosporium cucumerinum = conditions: after three days, glucose-agar, pH~6.9-7.0
Description: as §4, §5, §6

Botrytis allii = conditions: after three days, glucose-agar, pH~6.9-7.0
Description: as §4, §5, §6

SMILES	Minimal concentration causing complete inhibition of visible growth (MIC) (E. coli)	Minimal concentration causing complete inhibition of visible growth (MIC) (S. lactis)	Minimal concentration causing complete inhibition of visible growth (MIC) (B. subtilis)	Minimal concentration causing complete inhibition of visible growth (MIC) (P. fluorescens)	Minimal concentration causing complete inhibition of visible growth (MIC) (Aspergillus niger)	Minimal concentration causing complete inhibition of visible growth (MIC) (Penicillium italicum)	Minimal concentration causing complete inhibition of visible growth (MIC) (Cladosporium cucumerinum)	Minimal concentration causing complete inhibition of visible growth (MIC) (Botrytis allii)
CCC[CH2][Sn]([CH2]CCC)([CH2]CCC)[CH2]CC[N+](C)(C)C.[I-] [Bu3 Sn(CH2)3 NMe3 I]	30 µg/mL	≤ 1 µg/mL	≤ 1 µg/mL	300 µg/mL	50 µg/mL	50 µg/mL	20 µg/mL	≤ 10 µg/mL
CCC[CH2][Sn]([CH2]CCC)([CH2]CCN(C)C)[CH2]CCN(C)C [Bu2 Sn[(CH2)3 NMe2]2]	100 µg/mL	100 µg/mL	100 µg/mL	300 µg/mL	> 500 µg/mL	100 µg/mL	500 µg/mL	50 µg/mL
CCCC[CH2][Sn]([CH2]CCCC)([CH2]CCCC)[CH2]CC[N+](C)(C)C.[I-] [Pent3 Sn(CH2)3 NMe3 I]					20 µg/mL	20 µg/mL	20 µg/mL	≤ 10 µg/mL
CCC[CH2][Sn]([CH2]CCC)([CH2]CCC)[O]C(C)=O [Bu3 SnOAc, reference compound]	> 500 µg/mL	5 µg/mL	2 µg/mL	100 µg/mL	1 µg/mL	0.5 µg/mL	1 µg/mL	0.5 µg/mL
CCC[CH2][Sn]([CH2]CCC)([CH2]CCC)[CH2]CCN [Bu3 Sn(CH2)3 NH2]					20 µg/mL	2 µg/mL	5 µg/mL	
CCC[CH2][Sn]([CH2]C#N)([CH2]CCC)[CH2]CCC [Bu3 SnCH2 CN]					1 µg/mL	5 µg/mL		20 µg/mL
CCC[CH2][Sn]([CH2]CCC)([CH2]CCC)[CH2]CCN(C)C.Cl [Bu3 Sn(CH2)3 NMe2 . HCl]	300 µg/mL	10 µg/mL	10 µg/mL	300 µg/mL	5 µg/mL	5 µg/mL	5 µg/mL	5 µg/mL
C[N+](C)(C)CC[CH2][Sn]([c]1ccccc1)([c]1ccccc1)[c]1ccccc1.[I-] [Ph3 Sn(CH2)3 NMe3 I]	1000 µg/mL	10 µg/mL	10 µg/mL	1000 µg/mL	> 500 µg/mL	200 µg/mL	500 µg/mL	20 µg/mL
CCC[CH2][Sn]([CH2]CCC)([CH2]CCC)[CH2]CCC [Bu4 Sn, reference compound]	> 500 µg/mL	> 500 µg/mL	> 500 µg/mL	> 500 µg/mL	> 500 µg/mL	> 500 µg/mL	> 500 µg/mL	> 500 µg/mL
CC[N+](C)(CC)CC[CH2][Sn]([c]1ccccc1)([c]1ccccc1)[c]1ccccc1.[I-] [Ph3 Sn(CH2)3 NEt2 MeI]					> 1000 µg/mL	500 µg/mL		50 µg/mL
CCC[CH2][Sn]([CH2]CCC)([CH2]CCC)[CH2]CC(N)=O [Bu3 Sn(CH2)2 CONH2]	> 1000 µg/mL	10 µg/mL	3 µg/mL	300 µg/mL	≤ 20 µg/mL	≤ 10 µg/mL	≤ 10 µg/mL	≤ 10 µg/mL
CCC[CH2][Sn]([CH3])([CH2]CCC)[CH2]CCNCCCN(C)C [MeBu2 Sn(CH2)3 NH(CH2)3 NMe2, N-[3-(methyldibutylstannyl)propyl-N', N'-dimethyltrimethylene]diamine]	10 µg/mL	10 µg/mL	10 µg/mL	10 µg/mL	50 µg/mL	≤ 10 µg/mL	50 µg/mL	≤ 10 µg/mL
CCC[CH2][Sn]([CH2]CCC)([CH2]CC[N+](C)(C)C)[CH2]CC[N+](C)(C)C.[I-].[I-] [Bu2 Sn[(CH2)3 NMe3 I]2, Bis(trimethylammoniopropyl)dibutyltin diiodide]	> 1000 µg/mL	300 µg/mL	300 µg/mL	> 1000 µg/mL	> 500 µg/mL	200 µg/mL	> 500 µg/mL	200 µg/mL
CCC[CH2][Sn]([CH2]CCC)([CH2]CCC)[CH2]CCCN [Bu3 Sn(CH2)4 NH2]	300 µg/mL	3 µg/mL	3 µg/mL	300 µg/mL				
O=C([CH2][Sn]([c]1ccccc1)([c]1ccccc1)[c]1ccccc1)[O][Sn]([c]1ccccc1)([c]1ccccc1)[c]1ccccc1 [Ph3 SnCH2 COOSnPh3]					≤ 10 µg/mL	≤ 10 µg/mL		≤ 10 µg/mL
CCC[CH2][Sn]([CH2]CCC)([CH2]CCC)[CH2]CCOC(C)=O [Bu3 Sn(CH2)3 OCOCH3]	> 1000 µg/mL	100 µg/mL	100 µg/mL	300 µg/mL	50 µg/mL	20 µg/mL	20 µg/mL	50 µg/mL

Reference: patent publication US4221811A, “Antifungal and/or antibacterial organotin compounds, and use” (priority 1977, dated 1980)
